# According to patent US20230339977A1, “SUBSTITUTED HETEROARYL COMPOUND, AND COMPOSITION AND APPLICATION THEREOF” (SUNSHINE LAKE PHARMA CO., LTD., priority 2020, published 2023):
# System: P-STAT3
# Test: Effect of TYK2 inhibitor on P-STAT3 expression in PBMC induced by IFN-α (Table 3, P-STAT3 (h))
# Assay type: cell-based
# Settings: Homo sapiens; P-STAT3 by ELISA, PBMC stimulated with IFN-α 5000 U/mL
# Description: Whole blood was collected from healthy subjects, anticoagulated with heparin sodium, and PBMC (human peripheral blood mononuclear cells) were extracted. PBMC were seeded in 96-well culture plates at a density of 1*106/well. The initial concentration of the positive drug BMS986165 was 1000 nM, after diluting 10 times, the positive drug BMS986165 was diluted 8 concentrations by 3 times; the concentration of the other tested compounds was 333 nM. Positive wells and negative wells were added with the same volume of DMSO as the compound, and the final concentration of DMSO was 0.5%. After the compound was added, the cells were incubated at 37° C. for 1 h, and then stimulated by the addition of IFN-α at a final concentration of 5000 U/mL. An equal volume of medium was added to the negative wells and incubated for 15 min. The cells were centrifuged to remove the supernatant, and lysed, and the P-STAT3 was measured according to the instructions of the ELISA kit, the absorbance was read at 450 nm, and the IC50 value or inhibition rate was calculated.
# CTLL-2, P-STAT3 and TF-1 cells were seeded in a 96-well culture plate at a density of 20,000/well with 90 µL per well, and the blank well was an equal amount of complete medium. […]
smiles,measurement,value
"CC(=O)Nc1cc2c(-c3ccc4c(n3)C3(CCOC3)OC4)cn(C)c2cn1 (stereo not shown) [Example 2, N-(3-(4,5-Dihydro-2H,5′H-Spiro[Furan-3,7′-Furo[3,4-b]Pyridin]-2′-yl)-1-Methyl-1H-Pyrrolo[2,3-c]Pyridin-5-yl)Acetamide]",IC50,95.8 nM
